Measured values as given in ChEMBL document CHEMBL5360622, “Leucettinibs, a Class of DYRK/CLK Kinase Inhibitors Inspired by the Marine Sponge Natural Product Leucettamine B” (J Med Chem, 2023).

Assays:
[1] = target: Cyclin-dependent kinase 5/CDK5 activator 1 (Homo sapiens, UniProt Q00535); type: cell-based, Sf9
[2] = target: Glycogen synthase kinase-3 beta (Homo sapiens, UniProt P49841); type: cell-based, Sf9
[3] = target: Dual specificity protein kinase CLK3 (Homo sapiens, UniProt P49761); type: cell-based, Sf9
[4] = target: Dual specificity protein kinase CLK2 (Homo sapiens, UniProt P49760)
[5] = target: Casein kinase I isoform epsilon (Homo sapiens, UniProt P49674)
[6] = target: T1, Dual specificity tyrosine-phosphorylation-regulated kinase 2 (Homo sapiens, UniProt Q92630)
T1 sequence (Q92630 whole entry): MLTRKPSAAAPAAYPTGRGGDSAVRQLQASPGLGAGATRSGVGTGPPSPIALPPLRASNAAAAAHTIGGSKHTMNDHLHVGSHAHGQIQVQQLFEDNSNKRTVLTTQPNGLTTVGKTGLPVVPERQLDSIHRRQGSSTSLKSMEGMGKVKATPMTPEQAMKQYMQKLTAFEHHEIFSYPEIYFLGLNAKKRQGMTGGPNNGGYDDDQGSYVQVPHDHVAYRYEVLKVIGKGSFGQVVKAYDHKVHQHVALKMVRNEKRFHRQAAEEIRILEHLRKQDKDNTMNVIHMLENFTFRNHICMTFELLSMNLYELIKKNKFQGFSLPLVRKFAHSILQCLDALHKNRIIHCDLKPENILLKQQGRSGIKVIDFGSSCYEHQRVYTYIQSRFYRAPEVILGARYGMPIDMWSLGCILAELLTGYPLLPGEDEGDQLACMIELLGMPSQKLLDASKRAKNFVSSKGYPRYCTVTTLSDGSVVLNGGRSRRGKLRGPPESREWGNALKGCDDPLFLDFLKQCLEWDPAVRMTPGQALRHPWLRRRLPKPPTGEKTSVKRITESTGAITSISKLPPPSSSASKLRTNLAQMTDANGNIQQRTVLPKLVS

[7] = target: T2, Dual specificity tyrosine-phosphorylation-regulated kinase 3 (Homo sapiens, UniProt O43781)
T2 sequence (O43781 whole entry): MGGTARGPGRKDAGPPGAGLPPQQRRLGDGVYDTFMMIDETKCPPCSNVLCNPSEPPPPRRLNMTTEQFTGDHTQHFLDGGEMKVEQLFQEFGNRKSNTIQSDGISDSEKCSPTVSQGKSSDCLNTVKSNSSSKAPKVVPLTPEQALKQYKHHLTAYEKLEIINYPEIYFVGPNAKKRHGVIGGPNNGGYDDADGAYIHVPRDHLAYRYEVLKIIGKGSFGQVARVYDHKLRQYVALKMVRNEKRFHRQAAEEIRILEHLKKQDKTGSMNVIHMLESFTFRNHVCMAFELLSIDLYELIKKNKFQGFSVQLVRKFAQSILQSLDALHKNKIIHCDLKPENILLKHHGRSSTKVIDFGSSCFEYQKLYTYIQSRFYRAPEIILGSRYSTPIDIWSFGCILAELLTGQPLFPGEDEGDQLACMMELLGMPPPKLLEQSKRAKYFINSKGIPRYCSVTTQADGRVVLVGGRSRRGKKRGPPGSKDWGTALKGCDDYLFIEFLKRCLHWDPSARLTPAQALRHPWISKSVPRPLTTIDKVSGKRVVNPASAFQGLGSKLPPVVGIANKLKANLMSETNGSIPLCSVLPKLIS

[8] = target: Dual specificity protein kinase CLK4 (Homo sapiens, UniProt Q9HAZ1)
[9] = target: T3, Dual specificity tyrosine-phosphorylation-regulated kinase 4 (Homo sapiens, UniProt Q9NR20)
T3 sequence (Q9NR20 whole entry): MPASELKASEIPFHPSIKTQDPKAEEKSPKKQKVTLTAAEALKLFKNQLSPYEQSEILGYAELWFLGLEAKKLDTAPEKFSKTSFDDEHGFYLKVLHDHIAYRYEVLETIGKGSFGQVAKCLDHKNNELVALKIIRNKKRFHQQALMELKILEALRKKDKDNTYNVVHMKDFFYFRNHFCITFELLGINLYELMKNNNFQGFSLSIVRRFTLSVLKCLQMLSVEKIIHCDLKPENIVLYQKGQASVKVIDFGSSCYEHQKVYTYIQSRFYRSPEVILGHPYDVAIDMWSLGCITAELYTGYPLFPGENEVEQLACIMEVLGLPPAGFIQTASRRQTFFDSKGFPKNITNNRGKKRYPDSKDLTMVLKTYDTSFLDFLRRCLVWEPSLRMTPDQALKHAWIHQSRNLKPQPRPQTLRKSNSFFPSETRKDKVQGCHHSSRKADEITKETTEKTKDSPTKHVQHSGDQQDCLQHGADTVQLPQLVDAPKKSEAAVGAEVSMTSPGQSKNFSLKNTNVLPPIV

Dual specificity protein kinase CLK3, sequence (P49761 whole entry): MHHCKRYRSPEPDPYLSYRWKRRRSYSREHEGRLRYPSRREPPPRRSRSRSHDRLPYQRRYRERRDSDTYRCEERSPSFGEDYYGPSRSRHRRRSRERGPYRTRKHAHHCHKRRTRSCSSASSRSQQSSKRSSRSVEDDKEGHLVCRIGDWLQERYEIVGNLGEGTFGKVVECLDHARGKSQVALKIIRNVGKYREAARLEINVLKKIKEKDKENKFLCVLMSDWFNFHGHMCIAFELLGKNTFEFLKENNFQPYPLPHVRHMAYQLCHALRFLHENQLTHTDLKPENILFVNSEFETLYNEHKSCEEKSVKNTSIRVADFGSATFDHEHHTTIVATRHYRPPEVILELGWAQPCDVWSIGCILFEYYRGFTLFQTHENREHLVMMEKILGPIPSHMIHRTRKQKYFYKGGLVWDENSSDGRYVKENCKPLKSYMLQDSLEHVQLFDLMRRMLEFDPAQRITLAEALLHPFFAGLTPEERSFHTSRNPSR
Dual specificity protein kinase CLK4, sequence (Q9HAZ1 whole entry): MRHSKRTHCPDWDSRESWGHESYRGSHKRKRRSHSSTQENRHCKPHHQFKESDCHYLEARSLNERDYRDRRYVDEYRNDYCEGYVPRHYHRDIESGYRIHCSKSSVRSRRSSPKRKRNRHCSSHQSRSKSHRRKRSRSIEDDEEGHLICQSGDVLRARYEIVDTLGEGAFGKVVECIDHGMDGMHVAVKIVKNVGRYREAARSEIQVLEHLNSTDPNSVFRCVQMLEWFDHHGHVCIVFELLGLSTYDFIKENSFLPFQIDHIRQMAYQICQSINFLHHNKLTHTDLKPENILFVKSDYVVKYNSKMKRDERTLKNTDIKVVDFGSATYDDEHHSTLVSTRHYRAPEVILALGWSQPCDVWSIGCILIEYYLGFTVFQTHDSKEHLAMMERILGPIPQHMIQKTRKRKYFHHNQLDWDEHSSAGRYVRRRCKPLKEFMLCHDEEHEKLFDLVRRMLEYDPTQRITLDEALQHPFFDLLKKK
Dual specificity protein kinase CLK2, sequence (P49760 whole entry, canonical isoform): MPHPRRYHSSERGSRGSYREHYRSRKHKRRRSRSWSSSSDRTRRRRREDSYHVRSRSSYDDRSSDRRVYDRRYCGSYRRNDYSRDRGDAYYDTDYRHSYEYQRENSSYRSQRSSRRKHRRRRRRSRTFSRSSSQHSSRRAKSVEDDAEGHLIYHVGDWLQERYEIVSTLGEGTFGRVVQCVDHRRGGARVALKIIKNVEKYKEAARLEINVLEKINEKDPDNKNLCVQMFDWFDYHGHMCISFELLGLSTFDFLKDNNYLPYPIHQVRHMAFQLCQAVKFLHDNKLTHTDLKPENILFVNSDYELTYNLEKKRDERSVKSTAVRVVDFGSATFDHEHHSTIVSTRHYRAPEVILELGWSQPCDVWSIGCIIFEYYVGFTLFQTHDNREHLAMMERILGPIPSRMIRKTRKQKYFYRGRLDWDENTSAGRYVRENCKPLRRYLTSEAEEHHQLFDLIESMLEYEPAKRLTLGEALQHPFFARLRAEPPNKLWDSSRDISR
Cyclin-dependent kinase 5/CDK5 activator 1, sequence (Q00535 whole entry): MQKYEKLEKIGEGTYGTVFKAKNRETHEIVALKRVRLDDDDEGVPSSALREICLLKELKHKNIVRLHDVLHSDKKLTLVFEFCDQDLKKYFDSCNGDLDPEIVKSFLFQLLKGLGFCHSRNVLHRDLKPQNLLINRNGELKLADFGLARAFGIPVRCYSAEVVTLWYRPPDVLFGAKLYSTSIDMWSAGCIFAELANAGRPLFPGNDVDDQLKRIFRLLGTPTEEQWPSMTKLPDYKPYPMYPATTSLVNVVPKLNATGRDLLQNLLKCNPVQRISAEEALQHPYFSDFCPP
Cyclin-dependent kinase 5/CDK5 activator 1, sequence (Q15078 whole entry, further chain): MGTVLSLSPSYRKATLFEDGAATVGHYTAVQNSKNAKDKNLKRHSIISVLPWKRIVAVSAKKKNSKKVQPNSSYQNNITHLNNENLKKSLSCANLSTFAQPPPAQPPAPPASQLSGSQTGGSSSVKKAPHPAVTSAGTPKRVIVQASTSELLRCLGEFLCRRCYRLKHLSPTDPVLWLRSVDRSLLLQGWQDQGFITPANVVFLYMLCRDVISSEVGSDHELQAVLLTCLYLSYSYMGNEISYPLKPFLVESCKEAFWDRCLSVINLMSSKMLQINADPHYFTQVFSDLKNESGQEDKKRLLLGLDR
Glycogen synthase kinase-3 beta, sequence (P49841 whole entry): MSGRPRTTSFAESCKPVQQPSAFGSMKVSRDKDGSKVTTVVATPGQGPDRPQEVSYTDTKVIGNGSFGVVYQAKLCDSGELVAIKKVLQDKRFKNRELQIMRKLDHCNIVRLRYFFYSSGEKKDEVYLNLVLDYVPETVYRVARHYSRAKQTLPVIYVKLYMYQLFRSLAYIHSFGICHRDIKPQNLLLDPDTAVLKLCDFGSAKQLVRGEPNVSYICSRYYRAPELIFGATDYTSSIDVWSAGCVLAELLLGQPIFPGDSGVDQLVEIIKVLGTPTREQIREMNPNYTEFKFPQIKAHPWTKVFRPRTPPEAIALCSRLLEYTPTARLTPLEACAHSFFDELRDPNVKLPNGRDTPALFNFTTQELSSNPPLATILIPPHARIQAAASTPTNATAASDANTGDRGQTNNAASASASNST
Casein kinase I isoform epsilon, sequence (P49674 whole entry, canonical isoform): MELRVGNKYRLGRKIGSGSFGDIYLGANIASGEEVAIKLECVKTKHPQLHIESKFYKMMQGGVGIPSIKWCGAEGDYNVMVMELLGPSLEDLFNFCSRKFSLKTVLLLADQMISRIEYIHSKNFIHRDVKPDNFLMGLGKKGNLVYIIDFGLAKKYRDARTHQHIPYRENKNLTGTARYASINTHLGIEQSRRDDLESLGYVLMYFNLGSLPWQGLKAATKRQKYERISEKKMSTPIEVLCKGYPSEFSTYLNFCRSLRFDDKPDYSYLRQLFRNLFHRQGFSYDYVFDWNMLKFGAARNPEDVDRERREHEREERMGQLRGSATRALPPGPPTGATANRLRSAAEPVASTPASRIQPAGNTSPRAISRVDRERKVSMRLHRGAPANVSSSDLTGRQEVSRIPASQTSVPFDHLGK

Row | Structure (SMILES) | IC50 [1] | IC50 [2] | IC50 [3] | IC50 [4] | IC50 [5] | IC50 [6] | IC50 [7] | IC50 [8] | IC50 [9]
1 | O=C1NC(Nc2ccccc2)=N/C1=C\c1ccc2c(c1)OCO2 |  | 600 nM | 1200 nM |  |  |  |  | 23 nM | 
2 | Cc1nc2ccc(/C=C3\N=C(NC4CCCCC4)NC3=O)cc2s1 | > 10000 nM | > 10000 nM | 5040 nM |  | > 10000 nM | 4710 nM |  | 351 nM | > 10000 nM
3 | O=C1NC(Nc2ncccn2)=N/C1=C\c1ccc2ncsc2c1 | > 10000 nM | 7740 nM | 2260 nM | 627 nM | > 10000 nM | 2390 nM | 4030 nM | 34 nM | 
4 | CN1CCC2(CC1)CC(NC1=N/C(=C\c3ccc4ncsc4c3)C(=O)N1)C2 | > 10000 nM | > 10000 nM | 7460 nM | 851 nM | > 10000 nM | 4470 nM | 403 nM | 107 nM | 
5 | O=C1NC(N[C@@H](CO)Cc2ccccc2)=N/C1=C\c1ccc2ncsc2c1 | > 10000 nM | 2740 nM | 295 nM | 90 nM | > 10000 nM | 886 nM |  | 14 nM | 1150 nM
6 | O=C1NC(NCc2nc3ccccc3s2)=N/C1=C\c1ccc2ncsc2c1 | > 10000 nM | 9030 nM | 7010 nM |  | > 10000 nM | > 10000 nM | > 10000 nM | 71 nM | > 10000 nM
7 | CN1CCC(NC2=N/C(=C\c3ccc4ncsc4c3)C(=O)N2)C1=O (racemic) | > 10000 nM | > 10000 nM | 2700 nM |  | > 10000 nM | 2810 nM | 2320 nM | 12 nM | 4890 nM
8 | CN1CCC(NC2=N/C(=C\c3ccc4ncsc4c3)C(=O)N2)CC1 | > 10000 nM | > 10000 nM | 3860 nM |  | > 10000 nM | 7830 nM | 647 nM | 78 nM | > 10000 nM
9 | O=C1NC(N[C@H]2CN3CCC2CC3)=N/C1=C\c1ccc2ncsc2c1 | > 10000 nM | > 10000 nM | 1750 nM | 40 nM |  |  | 199 nM | 11 nM | 
10 | O=C1NC(N[C@@H]2CN3CCC2CC3)=N/C1=C\c1ccc2ncsc2c1 | > 10000 nM | > 10000 nM | 4350 nM | 1170 nM |  |  | 483 nM | 169 nM | 
11 | O=C1NC(NCCCn2ccnc2)=N/C1=C\c1ccc2ncsc2c1 | > 10000 nM | 6190 nM | 1790 nM |  | > 10000 nM | 592 nM |  | 12 nM | 
12 | CO[C@H]1Cc2ccccc2[C@H]1NC1=N/C(=C\c2ccc3ncsc3c2)C(=O)N1 (racemic) | > 10000 nM | > 10000 nM | > 10000 nM | 3480 nM | > 10000 nM | 5170 nM | > 10000 nM | 100 nM | 
13 | Cc1ccc(NC2=N/C(=C\c3ccc4ncsc4c3)C(=O)N2)cc1F | > 10000 nM | > 10000 nM | > 10000 nM | 3520 nM | > 10000 nM | 6530 nM | 3060 nM | 71 nM | 
14 | O=C1NC(NC2CCC(F)(F)C2)=N/C1=C\c1ccc2ncsc2c1 (racemic) | 5500 nM | 4690 nM | 173 nM | 39 nM | > 10000 nM | 389 nM | 299 nM |  | 326 nM
15 | O=C1NC(NCC(O)C2CCCCC2)=N/C1=C\c1ccc2ncsc2c1 (racemic) | > 10000 nM | 3080 nM | 299 nM | 46 nM | 6930 nM | 1090 nM | 357 nM |  | 319 nM
16 | O=C1NC(N[C@@H]2c3ccccc3C[C@H]2O)=N/C1=C\c1ccc2ncsc2c1 | > 10000 nM | > 10000 nM | 2040 nM |  | > 10000 nM | 390 nM |  | 11 nM | 180 nM

Results, then the molecule that gave them:

Row | IC50 [1] | IC50 [2] | IC50 [3] | IC50 [4] | IC50 [5] | IC50 [6] | IC50 [7] | IC50 [8] | IC50 [9] | Structure (SMILES)
17 | > 10000 nM | 1270 nM | 848 nM | 50 nM | > 10000 nM | 235 nM | 741 nM | 14 nM |  | CO[C@@H]1Cc2ccccc2[C@H]1NC1=N/C(=C\c2ccc3ncsc3c2)C(=O)N1 (racemic)
18 | 4660 nM | 2440 nM | 1660 nM | 14 nM | > 10000 nM | 145 nM |  | 19 nM | 597 nM | CC(=O)OC12CC3CC(CC(NC4=N/C(=C\c5ccc6ncsc6c5)C(=O)N4)(C3)C1)C2
19 | > 10000 nM | 9030 nM | 4140 nM | 303 nM | > 10000 nM | 3950 nM |  | 32 nM | 8330 nM | Cc1cnc(CNC2=N/C(=C\c3ccc4ncsc4c3)C(=O)N2)cn1
20 | > 10000 nM | 3710 nM | 697 nM | 349 nM | > 10000 nM | 1350 nM |  | 34 nM | 2150 nM | O=C1NC(NCCc2ccccn2)=N/C1=C\c1ccc2ncsc2c1
21 | > 10000 nM | 429 nM | 713 nM |  | > 10000 nM | 1540 nM |  | 3 nM | 2040 nM | O=C1NC(N[C@H]2c3ccccc3C[C@@H]2O)=N/C1=C\c1ccc2ncsc2c1
22 | 3290 nM | 659 nM | 167 nM | 531 nM | > 10000 nM | 702 nM |  | 161 nM | 1740 nM | COC(=O)C1(NC2=N/C(=C\c3ccc4ncsc4c3)C(=O)N2)C2CC3CC(C2)CC1C3 (stereo unspecified)
23 | > 10000 nM | 3310 nM | 4390 nM | 100 nM | > 10000 nM |  |  | 26 nM | 3120 nM | O=C1NC(N[C@@H](CO)CC2CCCCC2)=N/C1=C\c1ccc2ncsc2c1
24 | > 10000 nM | 6280 nM | 532 nM | 56 nM | > 10000 nM | 189 nM | 592 nM |  | 591 nM | CC1(NC2=N/C(=C\c3ccc4ncsc4c3)C(=O)N2)CCNC1=O (racemic)
25 | > 10000 nM | 13000 nM | 880 nM |  | > 10000 nM | 2300 nM | 1900 nM | 24 nM | 2600 nM | CO[C@H]1CC[C@H](NC2=N/C(=C\c3ccc4ncsc4c3)C(=O)N2)CC1
26 | 2490 nM | 7220 nM | 107 nM | 37 nM | > 10000 nM | 124 nM | 335 nM |  | 246 nM | O=C1NC(NC2CCCSC2)=N/C1=C\c1ccc2ncsc2c1 (racemic)
27 | > 10000 nM | 4750 nM | 357 nM | 102 nM | > 10000 nM | 260 nM | 692 nM |  | 574 nM | CC1(C)CCC(NC2=N/C(=C\c3ccc4ncsc4c3)C(=O)N2)CO1 (racemic)
